# Test results: patent publication US20240173317A1, “METHODS FOR TREATING PROGRESSIVE FAMILIAL INTRAHEPATIC CHOLESTASIS” (MIRUM PHARMACEUTICALS, INC., priority 2022, published 2024)
# Key:
# participants with ALGS [1] = experiment: ItchRO(Obs) pruritus in participants with ALGS aged 16 years and older; assay type: in vivo, human
# Experimental: (§1) All patients received the daily dose appropriate for their weight, with an adult maximum dose of 28.5 mg/d. ^bBefore age 16 years is defined as the last data point prior to turning 16 years of age. After age 16 years is defined as the first data point after turning 16 years of age.
# (§2) FIGS. 31A and 31B show a change in ltchRO(Obs) (FIG. 31A) and sBA (FIG. 31B) for participants who initiated MRX treatment at <16 years of age (n=11). Of 11 participants, 9 had ItchRO(Obs) scores available for all time points and were included in the analysis. ^bItchRO(Obs) is a 0-4 scale with >1-point reduction considered clinically meaningful. Mean ItchRO(Obs) was rounded to 1 decimal place. Error bars represent SE. Significance was determined using student t test. ^cMean sBA was rounded to the nearest whole number. Error bars represent SE. ^dAverage of last 2 records prior to age 16 years. ^eAverage of first 2 records after age 16 years. ^fAverage of final 2 records.
# (§3) FIGS. 32A and 32B show a change in ltchRO(Obs) (FIG. 32A) and sBA (FIG. 32B) for participants who Initiated MRX treatment at ≥16 years of age (n=3). ^aItchRO(Obs) is 0-4 scale with ≥1-point reduction considered clinically meaningful. ^bAverage of final two records.
# (§4) The efficacy and safety of MRX in participants with ALGS aged ≥16 years transitioning to adult care and participant aged ≥16 years who initiate MRX treatment were studied (FIG. 30). […]
# participants with ALGS [2] = experiment: sBA in participants with ALGS aged 16 years and older; assay type: in vivo, human
# Experimental: as §1, §2, §3, §4
# subjects with PFIC [3] = experiment: Total serum bile acid (sBA) level, MARCH-PFIC Phase 3 study; assay type: in vivo, human; conditions: for percentage of sBA response (sBA responders): Week 18 to Week 26
# Experimental: Serum bile acids and other cholestasis biomarkers. Blood samples were collected as described in Table 1 to measure levels of cholestasis biomarkers including total sBA, sBA subspecies, C4, FGF-19, and autotaxin as well as liver related parameters. Subjects were encouraged to fast at least 6 hours prior to collection (water intake was permitted if necessary but not recommended). Total sBA and targeted bile acid subspecies were quantified with liquid chromatography mass spectrometry (LC-MS) methodology for exploratory assessments. In addition, screening total sBA will be assessed with an enzymatic assay for inclusion criteria evaluation. C4, a key intermediate in the pathway for bile acid synthesis from cholesterol, will be determined by a validated LC-MS/MS method. The secondary efficacy endpoints are defined as Mean change in total serum bile acid (sBA) level between baseline and average of Weeks 18, 22, and 26 (FIGS. 11-12); 2) Percentage of ItchRO(Obs) responders from Week 15 to Week 26 (FIGS. 13A and 14A); 3) Percentage of sBA responders from Week 18 to Week 26 (FIGS. 13B and 14B). Pruritus responders are defined as a subject having a 4-week average morning ItchRO (Obs) severity change from baseline of […] OR an average severity score of ≤1.0. For the purpose of determining response, the average severity score from the three 4-week periods (weeks 15-18, 19-22 and 23-26) are used. A subject is defined as an ItchRO non-responder if the 4-week average baseline score is missing OR all three 4-week average (post-baseline) scores are missing. sBA responders are defined as a subject having an average sBA level of <102 μmon (applies only if baseline sBA was ≥102 μmon) OR a ≤−75% average percent change from baseline. For the purpose of determining response, the average sBA value from Weeks 18, 22 and 26 values are used. A subject is defined as an sBA non-responder if the baseline sBA value is missing OR sBA values are missing at all 3 time points (i.e., Weeks 18, 22, and 26). p-values comparing maralixibat to placebo treatment groups are calculated using Barnard's exact test.
# subjects with PFIC [4] = experiment: Total and direct bilirubin, MARCH-PFIC Phase 3 study
# Description: Estimates are from a mixed model for repeated measures (MMRM) with change from baseline as the dependent variable and fixed categorical effects of treatment group, time period and treatment-by-time period interaction as well as the continuous fixed covariates of average baseline score and baseline score-by-time period interaction. […] Average of time periods Weeks 15-18, 19-22, and 2326 obtained from the MMRM as an equally weighted average of the 3 individual visit-specific estimates.
# Methods: MARCH enrolled patients with a genetic diagnosis of PFIC, pruritus, and elevated sBA. Patients were randomized to MRX 57011 g/kg BID or placebo (PBO) for 26 weeks. Changes were determined as the difference between MRX and PBO groups for Change from Baseline (CFB) to the average of the final 3 measurements (Weeks 18, 22 and 26) using a mixed-effects model with recurrent measurements. Total/direct bilirubin (TB/DB) categories were defined as normal (≤1.2/0.3 mg/dL) or abnormal (>1.2/0.3 mg/dL).
# [5] = All PFIC cohort, average of Weeks 18, 22, 26, FIG. 11B
# [6] = BSEP deficiency cohort, average of Weeks 18, 22, 26, FIG. 11A
# [7] = BSEP deficiency cohort, FIG. 20A
# [8] = BSEP deficiency cohort, FIG. 22A
# [9] = MRX group, post-hoc analysis, FIG. 38A-B
# [10] = individuals with abnormal Baseline bilirubin, FIG. 37B
structure (smiles),measurement,setting,value
"CCCCC1(CCCC)CS(=O)(=O)c2ccc(N(C)C)cc2[C@@H](c2ccc(OCc3ccc(C[N+]45CCN(CC4)CC5)cc3)cc2)[C@H]1O [maralixibat, 1-(4-((4-((4R,5R)-3,3-dibutyl-7-(dimethylamino)-4-hydroxy-1,1-dioxido-2,3,4,5-tetrahydrobenzo[b]thiepin-5-yl)phenoxy)methyl)benzyl)-1,4-diazabicyclo[2.2.2]octan-1-ium]",improvements in pruritus (ItchRO(Obs)),"participants with ALGS [1]; MRX during childhood, maintained into early adulthood, FIG. 31A",significant improvements
same,improvements in pruritus (ItchRO(Obs)),"participants with ALGS [1]; participants receiving MRX in early adulthood, FIG. 32A",significant improvements
same,improvements in sBA,"participants with ALGS [2]; MRX during childhood, maintained into early adulthood, FIG. 31B",significant improvements
same,improvements in sBA,"participants with ALGS [2]; participants receiving MRX in early adulthood, FIG. 32B",significant improvements
same,reduction of sBA levels (mean change from baseline),subjects with PFIC [3]; [5],over 150 μmon
same,sBA difference from placebo,subjects with PFIC [3]; [5],160.403 μmon
same,percentage of sBA response (sBA responders),"subjects with PFIC [3]; BSEP deficiency cohort, FIG. 13B",35.7%
same,reduction of sBA levels (mean change from baseline),subjects with PFIC [3]; [6],~200 µmol/L
same,sBA difference from placebo,subjects with PFIC [3]; [6],186.723 µmol/L
same,improvements in serum bile acid levels,"subjects with PFIC [3]; FIC1, MDR3, TJP2, MYO5B cohorts, FIG. 34A-B",Significant improvements
same,reduction of sBA levels (mean change from baseline),"subjects with PFIC [3]; FIC1 cohort, FIG. 12A",~100 µmol/L
same,sBA difference from placebo,"subjects with PFIC [3]; FIC1 cohort, FIG. 12A",126.382 µmol/L
same,percentage of sBA response (sBA responders),"subjects with PFIC [3]; FIG. 14B, sentence prints BSEP deficiency cohort",45.5%
same,reduction of sBA levels (mean change from baseline),"subjects with PFIC [3]; MDR3 cohort, FIG. 12B",150 μmon
same,sBA difference from placebo,"subjects with PFIC [3]; MDR3 cohort, FIG. 12B",135.089 μmon
same,sBA levels lower at each time point (change from baseline over time),"subjects with PFIC [3]; Week 2 to Week 26, BSEP deficiency group, PFIC group, all study participants, FIG. 15A-C",more than 100 μmon
same,improvements in serum bile acid levels,"subjects with PFIC [3]; full-study population, FIG. 35B",statistically significant and clinically meaningful improvements
same,improvements in serum bile acid levels,"subjects with PFIC [3]; patients with no-variant found, FIG. 35D",demonstrated improvements
same,CFB in total bilirubin (TB),"subjects with PFIC [4]; All-PFIC cohort (MRX n = 33), average of Weeks 18, 22 and 26, FIG. 36A",-1.1 mg/dL
same,CFB in direct bilirubin (DB),"subjects with PFIC [4]; All-PFIC cohort (MRX n = 33), average of Weeks 18, 22 and 26, FIG. 36B",-0.8 mg/dL
same,TB group difference MRX vs PBO,"subjects with PFIC [4]; All-PFIC cohort, average of Weeks 18, 22 and 26, FIG. 36A",2.0
same,DB group difference MRX vs PBO,"subjects with PFIC [4]; All-PFIC cohort, average of Weeks 18, 22 and 26, FIG. 36B",1.5
same,difference in total bilirubin improvement vs placebo group,subjects with PFIC [4]; [7],1.585 mg/dL
same,improvement in (reduction of) total bilirubin relative to baseline,subjects with PFIC [4]; [7],about 1.2 mg/dL
same,difference in direct bilirubin improvement vs placebo group,subjects with PFIC [4]; [8],1.196 mg/dL
same,improvement in (reduction of) direct bilirubin relative to baseline,subjects with PFIC [4]; [8],over 0.8 mg/dL
same,"TB normalized, patients / patients with abnormal Baseline values",subjects with PFIC [4]; [9],10/25
same,patients who went from normal to abnormal TB,subjects with PFIC [4]; [9],0/7
same,DB frequency of normalization,"subjects with PFIC [4]; MRX group, post-hoc analysis, normal ≤0.3 mg/dL, FIG. 39",38%
same,"TB normalized, % of patients with abnormal Baseline values","subjects with PFIC [4]; MRX group, post-hoc analysis, normal ≤1.2 mg/dL, FIG. 38A-B",40%
same,difference in total bilirubin improvement vs placebo group,"subjects with PFIC [4]; PFIC cohort, FIG. 20B",2.000 mg/dL
same,improvement in (reduction of) total bilirubin relative to baseline,"subjects with PFIC [4]; PFIC cohort, FIG. 20B",about 1.2 mg/dL
same,difference in direct bilirubin improvement vs placebo group,"subjects with PFIC [4]; PFIC cohort, FIG. 22B",1.608 mg/dL
same,improvement in (reduction of) direct bilirubin relative to baseline,"subjects with PFIC [4]; PFIC cohort, FIG. 22B",about 0.9 mg/dL
same,total bilirubin lower than baseline over time,"subjects with PFIC [4]; Week 18 and later points in time, FIG. 21A-B",at least 1.0 mg/dL
same,direct bilirubin lower than baseline over time,"subjects with PFIC [4]; Week 18 and later points in time, FIG. 23A-B",at least 1.0 mg/dL
same,CFB in direct bilirubin (DB),subjects with PFIC [4]; [10],-0.8 mg/dL
same,DB group difference MRX vs PBO,subjects with PFIC [4]; [10],−1.8
